Assay results published in patent US20100266604A1, “USE OF TAM RECEPTOR INHIBITORS AS IMMUNOENHANCERS AND TAM ACTIVATORS AS IMMUNOSUPPRESSORS” (The Salk Institute for Biological Studies, priority 2007, published 2010).

What was measured:
Format in all cases: cell-based, mouse
[1] = tested on: IRF-7 and IFI-204 mRNA in DCs; assay: Q-PCR of IRF-7 and IFI-204 mRNA in DCs; details: BM-DCs, addition of Gas6 alone
Protocol: (§1) Splenic DCs (1×10^6 cells/ml) or BM-DCs (5×10^6 cells/ml) were cultured in serum-free medium and treated with the indicated concentrations of murine recombinant Gas6, murine recombinant Protein S, the TLR ligands indicated above, recombinant mouse IFNα (PBL Biomedical laboratories), recombinant mouse Axl-FC chimera (R&D), cyclohexamide (Sigma) or Actinomycin D (Sigma). Whole cell lysates and RNA extraction were performed as indicated below.
(§2) After stimulation, cells were harvested, and total RNA was isolated using the RNeasy mini kit (Qiagen). Reverse transcription was performed according to manufacturer instructions with RT Superscript III (Invitrogen). PCR reactions were performed on an ABI Prism 7700 Sequence Detection System using SYBRGreen PCR master mix (Applied Biosystems). Each reaction was normalized against the expression of β-actin or GAPDH. Analyses of dissociation curves were performed with SDS software (Applied Biosystems) to ensure the absence of nonspecific amplification. Q-PCR primers used herein are listed below.

[2] = tested on: TRAF6 and TRAF3 polyubiquitylation in BM-DCs; assay: Ubiquitylation assay of TRAF6 and TRAF3; details: 30 minutes LPS, 2-hour prior incubation with Gas6
Protocol: For ubiquitylation assays, 5×10^6 BM-DCs per condition were harvested in PBS containing 1% SDS and boiled for 5 minutes. PBS containing 1% Triton X-100, 1 mM DTT, 1 mM Na3VO4, 5 mM NaF and protease inhibitors (Complete, Roche) was added and the mixture was sonicated. Lysates were precleared for 1 hour by incubation with Immobilized rProteinA (RepliGen) and incubated overnight with primary antibody at 4° C. Immobilized rProteinA was added for the last 2 hours. The immunoprecipitates were washed in PBS containing 0.2% NP-40 and 0.5 M LiCl and resuspended and boiled in NuPage LDS sample buffer (Invitrogen) with 100 μM DTT.

[3] = tested on: IκBα and IκBβ degradation (NF-κB pathway) in BM-DCs; assay: Quantitative Li-Cor Odyssey Western blot of TLR-induced IκB degradation
Protocol: as §1
(§3) DCs were washed in PBS and harvested in NuPage LDS sample buffer (Invitrogen) with 100 μM DTT. Whole cell lysates were resolved by electrophoresis, proteins were transferred to a PVDF membrane (Immobilon P, Millipore), blocked in 3% BSA/TBS-Tween-20 and probed with the indicated antibodies. For fluorescent western blotting with the Odyssey system, proteins were transferred to an Immobilon-FL PVDF membrane (Millipore) and incubated with two primary antibodies in 0.1% casein/PBS-Tween-20. Following incubation with fluorescence-labeled secondary antibodies, membranes were scanned with the Odyssey imaging system (LI-COR).

DCs = assay: DC viability after Gas6 treatment
[4] = tested on: phospho-STAT1 (Y701), phospho-STAT2, phospho-STAT3 in DCs; assay: Immunoblot of STAT phosphorylation in DCs
Protocol: as §1, §3

[5] = tested on: p38 and ERK1/2 phosphorylation in BM-DCs; assay: Immunoblot of TLR-induced MAP kinase activation (phospho-p38, phospho-ERK1/2)
Protocol: as §1, §3

[6] = tested on: IRAK-M, SHIP, ATF-3, IRF-4, Triad3A and Tollip mRNA in BM-DCs; assay: Q-PCR of other negative regulators of TLR signaling; details: following TAM receptor activation with 50 nM Gas6
Protocol: as §1, §2

[7] = tested on: SOCS1 and SOCS3 mRNA in DCs; assay: Q-PCR of SOCS1 and SOCS3 mRNA in DCs
Protocol: as §1, §2

[8] = tested on: TLR-induced cytokine production in DCs; assay: DC activation assay: TLR-induced cytokine production (ELISA / ISRE luciferase reporter)
Protocol: Splenic DC or BM-DCs (1×10^6 cells/ml) were cultured overnight in serum-free medium (StemSpan, StemCell Technologies Inc.) in the presence of the indicated concentrations of LPS from Salmonella minnesota R595 Re (Alexis), CpG-ODN 1668 (TCCATGACGTTCCGATGCT; SEQ ID NO: 19; Integrated DNA Technologies) or Poly I:C (InvivoGen) alone or in the presence of murine recombinant Gas6 (R&D Systems) or murine recombinant Protein S (produced as described in Prasad et al., (2006) Mol Cell Neurosci 33:96-108). Cytokine production was quantified in cell-free supernatants by ELISA (ebioscience for IL-12, IL-6 and TNFα and PBL-biomedical for IFNα) or by a luciferase assay using a cell line containing an ISRE-responsive element luciferase reporter construct for Type I IFN (Jiang et al., (2005) Nat Immunol 6:565-570).

[9] = poly I:C, prior treatment with Gas6

CpG-induced phosphorylation of p38 and ERK1/2 ([5]; 1 μM CpG, 2-hour prior incubation with ligand): completely blocked
activation of p38 and ERK1/2 as a consequence of TLR4 ligation ([5]; LPS, prior incubation with Gas6): inhibited
Activation of the MAP kinase pathway by TLR3 [5, 9]: inhibited
LPS-induced production of IL-6 ([8]; Ifnar−/− DCs, Gas6): unable to inhibit
expression of IL6 triggered by LPS or CpG ([8]; STAT1−/− DCs, 50 nM Gas6, 15 hours): not inhibited
poly I:C-induced Type I IFN ([8]; TLR3 activated by poly I:C, 15 hours, 50 nM Gas6): comparable Gas6-mediated inhibition
LPS-induced IL6 and TNFα production ([8]; TLR4 activated by LPS, 15 hours, 50 nM Gas6): comparable Gas6-mediated inhibition
TLR9-induced production of Type I IFNs, IL6, and TNFα ([8]; wild-type DCs, overnight (15 hours) co-incubation with CpG, 50 nM Gas6): substantially inhibited
Substance: Gas6: murine recombinant Gas6 (R&D Systems), TAM receptor ligand/agonist
induction of IRF-7 and IFI-204 [1]: not induced
LPS-induced polyubiquitylation of TRAF6 and TRAF3 [2]: potently inhibited
CpG-induced degradation of IκBα and IκBβ ([3]; BM-DCs, prior incubation with ligand): completely blocked
kinetics and magnitude of CpG-induced degradation of IκBα and IκBβ ([3]; in the presence of cycloheximide or actinomycin D): the same, irrespective of the presence or absence of Gas6
Activation of the NF-κB pathway by TLR3 [3, 9]: inhibited
DC viability (DCs): unaffected
activation of STAT2 and 3 ([4]; DC cultures, addition of Gas6): not detected
STAT1 tyrosine phosphorylation ([4]; Ifnar−/− BM-DCs, Gas6 application): incapable of activating STAT1
STAT1 activation (phospho-STAT1 Y701) ([4]; TAM triple mutant DCs, Gas6): not seen
STAT1 activation (phospho-STAT1 Y701) ([4]; wild-type DCs, incubation with Gas6): activated
induction of IRAK-M, SHIP, ATF-3, IRF-4, Triad3A, Tollip mRNAs [6]: none of these mRNAs displayed significant induction
SOCS3 mRNA peak expression ([7]; BM-DCs, 50 nM Gas6, around 90 minutes): approximately 10 fold
SOCS1 expression ([7]; Ifnar−/− DCs, Gas6): unable to up-regulate
Gas6-mediated induction of SOCS1 mRNA ([7]; STAT1−/− DCs): completely abolished
Gas6 induction of SOCS3 mRNA ([7]; STAT1−/− DCs): substantially reduced
SOCS1 mRNA expression increase ([7]; WT BM-DCs, 50 nM Gas6, 120 minutes): approximately 10 fold
